Reference: PubChem BioAssay (NCI)
Values joined by “and” are separate entries in the source; they are usually repeats but may differ in a detail not shown here. Equal entries are not always repeated.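 These data come from cells grown in 96-well plates and exposed to compound for 48 hours at five concentrations. The concentration for 50% growth inhibition is given as GI50. At the TGI there is no net growth.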

Assays:
Test in all cases: growth of human tumour cells (NCI), 48 h
[1] = system: SF-539 CNS
[2] = system: MCF7 breast
[3] = system: UACC-62 melanoma
[4] = system: DU-145 prostate
[5] = system: A498 renal
[6] = system: SK-MEL-2 melanoma
[7] = system: M14 melanoma
[8] = system: HT29 colon
[9] = system: SR leukemia
[10] = system: CAKI-1 renal

| Compound | GI50 [1] [µM] | TGI [1] [µM] | GI50 [2] | TGI [2] [µM] | GI50 [3] [µM] | TGI [3] [µM] | GI50 [4] [µM] | TGI [4] [µM] | GI50 [5] [µM] | TGI [5] [µM] | GI50 [6] [µM] | TGI [6] [µM] | GI50 [7] | TGI [7] [µM] | TGI [8] [µM] | TGI [9] [µM] | TGI [10] [µM] | GI50 [8] | GI50 [10] | GI50 [9] [µM] |
| --- | --- | --- | --- | --- | --- | --- | --- | --- | --- | --- | --- | --- | --- | --- | --- | --- | --- | --- | --- | --- |
| CCn1c(=O)c2c(=O)c3c4c(oc3oc2c2ccccc21)C(=O)c1ccccc1C4=O | 3.32 | > 100 | > 100 µM | > 100 | > 25 | > 100 | > 100 | > 100 | 0.461 | > 100 | > 100 | > 100 | > 100 µM | > 100 |  |  |  |  |  |  |
| COc1cc(C=O)c(-c2cc(OC)c(OC)cc2C=O)cc1OC |  | > 100 |  |  |  | > 100 |  |  |  | > 100 |  | > 100 |  | > 100 | > 100 | 88.9 | > 100 |  |  |  |
| CN(CCO)c1ccc(N2Cc3ccccc3OC3=C2C(=O)c2c(O)ccc(O)c2C3=O)cn1 | 0.214 | 0.524 | 0.0638 µM | 0.31 | 0.21 | 0.498 | 0.174 | 0.323 | 2.17 | 5.66 | 0.299 | 0.99 | 0.192 µM | 0.409 | 0.468 |  |  | 0.172 µM |  |  |
| O=C(Nc1ccc(F)cc1)c1cc(S(=O)(=O)Nc2nc3ccccc3o2)c(SCc2ccccc2)cc1Cl | 17.1 | 31.2 | 24.8 µM | 63.7 | 14.4 | 27.6 | 19.2 | 35.4 | 17.2 | 32.5 |  |  | 16 µM | 30.8 | > 100 |  | 37.7 | 27 µM | 18.4 µM |  |
| CC1=C(C(=O)Nc2ccc(Cl)c(Cl)c2)C(c2cccc(Oc3ccccc3)c2)NC(=O)N1 (centres undefined) | 6.78 | 17 |  |  | 6.27 | 14.1 | 6.5 | 33.3 |  |  | 5.68 | 17.9 | 17.8 µM | 31.7 |  | > 50 | 20.4 |  | 7.64 µM | 28.1 |
| COc1ccc(-c2ccc(-c3ccc(C(=N)N)s3)s2)cc1 | 0.188 | 0.346 |  |  | 0.188 | 0.357 | 0.193 | 0.357 | 1.1 | 2.41 | 2.22 | 4.14 | 0.18 µM | 0.344 | 0.375 | 0.566 | 1.19 | 0.181 µM | 0.345 µM | 0.208 |
| COc1cc2c(OC)cc1CSCc1sc(C)c(c1Br)CSC2 |  | > 100 |  |  |  | > 100 |  |  |  | > 100 |  | > 100 |  | > 100 | > 100 | > 100 | > 100 |  |  |  |
| N#CC(C(=O)C(=O)Nc1ccc(Cl)cc1)c1ccccc1 (centres undefined) |  | > 100 |  |  |  | 77.9 |  |  |  | > 100 |  | > 100 |  | > 100 | > 100 | > 100 | > 100 |  |  |  |
| CC(C)C(=O)NS(=O)(=O)c1ccccc1 |  | > 100 |  |  |  | > 100 |  |  |  | > 100 |  | > 100 |  | > 100 | > 100 | > 100 | > 100 |  |  |  |
| CN1C(=O)/C(=C/c2c(Cl)n(C)c3ccccc23)c2ccccc21 |  |  | 3.02 µM and 2.15 µM | > 100 | 2.8 |  | 5.05 |  |  |  | 5 |  | 2.81 µM and 1.32 µM | 2.8 | 17.8 |  | 2.77 | 4.37 µM and 5.57 µM | 3.3 µM and 1.43 µM |  |
| COC(=O)/C=C/c1c(CC=C(C)C)ncn1C |  | 62.2 |  |  |  | > 100 |  |  |  | > 100 |  | > 100 |  | > 100 | > 100 | > 100 | > 100 |  |  |  |
| CC(C)N(CCn1c2c3ccccc3ccc2c2oc(=O)c3ccccc3c21)C(C)C |  | > 74.1 |  |  |  | > 100 |  |  |  | > 100 |  | > 100 |  | > 100 | > 100 | > 100 | > 100 |  |  |  |
| CC(C)C(=O)Nc1nc2c(ncn2C2OC(CO)C(O)C2O)c(=O)[nH]1 (centres undefined) |  | > 100 |  |  |  | > 100 |  |  |  | > 100 |  | > 100 |  | > 100 | > 100 | > 100 | > 100 |  |  |  |
| CC(=O)[O][Ga]([Br])[O]C(C)=O | > 100 | > 100 |  |  | > 100 | > 100 |  |  | > 100 | > 100 | > 100 | > 100 | > 100 µM | > 100 | > 100 | > 100 | > 100 | > 100 µM | > 100 µM | > 100 |
| O=C1NC(=NCCc2cccc(Cl)c2)S/C1=C\c1ccc2ncccc2c1 | > 25 | > 25 |  |  | > 25 | > 25 | > 25 | > 25 | > 25 | > 25 | > 25 | > 25 | > 25 µM | > 25 | > 25 | > 25 | > 25 | > 25 µM | > 25 µM | 0.403 |
